The values below come from paper PMC12389269, “Heteroaryl-Capped Hydroxamic Acid Derivatives with Varied Linkers: Synthesis and Anticancer Evaluation with Various Apoptosis Analyses in Breast Cancer Cells, Including Docking, Simulation, DFT, and ADMET Studies” (Pharmaceuticals, 2025).

pIC50: −log10 of the molar value. Converted amounts (≈) assume the structure as drawn. Where two headings read alike, the source gives them in different places.

What is called GI50 is the concentration giving 50% growth inhibition. By pIC50 is commonly meant −log10 of the IC50, conventionally taken in molar units. High values mean a low IC50, low ones a high IC50.

Test [1] relates to A-549 (Human Lung Cancer Cell Line). Briefly: SRB antiproliferative assay, A-549. It is filed as cell-based. Here is the method: (§1) Following an extensive review of the literature, we selected human breast cancer (MCF-7, MDA-MB-231) and lung cancer (A549) cell lines to evaluate the anticancer potential of the synthesized compounds, and some compounds with good anti-proliferation activity were again tested to evaluate their cytotoxic potential on A-549, MCF-7, and MDA-MB-231. The same were also tested on one non-cancerous/normal (HEK-293) cell line. All the cell lines for the required screening were developed in a suitable medium comprising 10% FBS and 2mM L-glutamine. Cancerous and non-cancerous/normal cell lines were selected for the cell proliferation and cytotoxicity assay and maintained with 5% CO2 at 37 °C in a CO2 incubator with 100% relative humidity for one complete day before the addition of experimental drugs.
(§2) Antiproliferative activity through an SRB assay was performed for all the synthesized compounds on A-549 and MCF-7 cell lines. Around 5000 cells/well were quarantined into a 96-well microtiter plate in 100 μL. The synthesized compounds were solubilized in DMSO and diluted to different concentrations before use. The final-drug-concentration aliquots were poured into microtiter wells, and the plates were incubated for 48 h in regular conditions. After adding the final drug concentration, the cells were allowed to set in place and incubated for 60 min. A total of 50 µL of SRB solution (0.4% w/v) in 1% CH3COOH was poured into each well. The plates were then incubated for 20 min at RT. During subsequent staining, the unbounded dye was removed, and the plate reader recorded the eluted bound stain at 540 nm with a 690 nm reference wavelength. The assay was performed precisely using the appropriate reagents and reaction situation, as per the reported procedure. ADR was selected as the reference drug.
A general note: Sulforhodamine B stains cellular protein and so reports cell mass.

The test system of test [2] is MCF-7 (Human Breast Cancer Cell Line). Briefly: SRB antiproliferative assay, MCF-7. It is filed as cell-based. How it is done: as §1, §2
The target in test [3] is T1, HDAC1 (Homo sapiens, UniProt Q13547).
T1 construct: The HeLa nuclear extract was used as a source of HDAC activity; host or cells: HeLa (nuclear extract / cells)
T1 sequence (Q13547 whole entry): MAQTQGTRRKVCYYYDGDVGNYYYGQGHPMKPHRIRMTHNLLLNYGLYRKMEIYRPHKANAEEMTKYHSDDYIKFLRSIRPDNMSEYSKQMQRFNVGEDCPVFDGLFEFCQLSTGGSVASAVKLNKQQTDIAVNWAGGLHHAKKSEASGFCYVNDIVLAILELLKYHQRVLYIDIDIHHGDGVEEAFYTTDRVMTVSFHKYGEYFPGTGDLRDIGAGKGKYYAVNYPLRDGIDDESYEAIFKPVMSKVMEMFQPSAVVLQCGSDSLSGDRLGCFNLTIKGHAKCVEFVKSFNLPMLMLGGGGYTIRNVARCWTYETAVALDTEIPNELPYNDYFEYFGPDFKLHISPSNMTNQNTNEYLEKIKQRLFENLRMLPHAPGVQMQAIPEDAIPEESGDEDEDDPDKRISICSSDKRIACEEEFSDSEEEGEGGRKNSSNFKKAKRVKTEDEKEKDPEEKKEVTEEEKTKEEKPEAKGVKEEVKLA
Kind of test: HDAC inhibition assay (color de lys ELISA kit), HDAC1. It is filed as biochemical. The settings on record: HeLa nuclear extract as source of HDAC activity. Here is the method:
(§3) SAHA served as the assay’s positive control. The HeLa nuclear extract was used as a source of HDAC activity. The trypsinized HeLa cells were tallied, put into 96-well microtiter plates, and nurtured. Samples and the standard were placed in wells at a concentration of 100 µL. The culture environment was maintained as per the procedure. 3,3′,5,5′-tetramethylbenzidine (TMB) was included for visualization. Finally, 50 µL of halt solution was smeared. The samples and different SAHA concentrations (0.01, 0.1, 1, 10 μM) were introduced to the appropriate well and left for 72 h. BioTek Epoch (Winooski, VT, USA) microplate reader was used to quantify optical density at 450 nm. The Graph Pad Prism 5 helped to determine the IC50 values.

For test [4], the target named is T2, HDAC6 (Homo sapiens, UniProt Q9UBN7).
T2 construct: The HeLa nuclear extract was used as a source of HDAC activity; host or cells: HeLa (nuclear extract / cells)
T2 sequence (Q9UBN7 1-1215): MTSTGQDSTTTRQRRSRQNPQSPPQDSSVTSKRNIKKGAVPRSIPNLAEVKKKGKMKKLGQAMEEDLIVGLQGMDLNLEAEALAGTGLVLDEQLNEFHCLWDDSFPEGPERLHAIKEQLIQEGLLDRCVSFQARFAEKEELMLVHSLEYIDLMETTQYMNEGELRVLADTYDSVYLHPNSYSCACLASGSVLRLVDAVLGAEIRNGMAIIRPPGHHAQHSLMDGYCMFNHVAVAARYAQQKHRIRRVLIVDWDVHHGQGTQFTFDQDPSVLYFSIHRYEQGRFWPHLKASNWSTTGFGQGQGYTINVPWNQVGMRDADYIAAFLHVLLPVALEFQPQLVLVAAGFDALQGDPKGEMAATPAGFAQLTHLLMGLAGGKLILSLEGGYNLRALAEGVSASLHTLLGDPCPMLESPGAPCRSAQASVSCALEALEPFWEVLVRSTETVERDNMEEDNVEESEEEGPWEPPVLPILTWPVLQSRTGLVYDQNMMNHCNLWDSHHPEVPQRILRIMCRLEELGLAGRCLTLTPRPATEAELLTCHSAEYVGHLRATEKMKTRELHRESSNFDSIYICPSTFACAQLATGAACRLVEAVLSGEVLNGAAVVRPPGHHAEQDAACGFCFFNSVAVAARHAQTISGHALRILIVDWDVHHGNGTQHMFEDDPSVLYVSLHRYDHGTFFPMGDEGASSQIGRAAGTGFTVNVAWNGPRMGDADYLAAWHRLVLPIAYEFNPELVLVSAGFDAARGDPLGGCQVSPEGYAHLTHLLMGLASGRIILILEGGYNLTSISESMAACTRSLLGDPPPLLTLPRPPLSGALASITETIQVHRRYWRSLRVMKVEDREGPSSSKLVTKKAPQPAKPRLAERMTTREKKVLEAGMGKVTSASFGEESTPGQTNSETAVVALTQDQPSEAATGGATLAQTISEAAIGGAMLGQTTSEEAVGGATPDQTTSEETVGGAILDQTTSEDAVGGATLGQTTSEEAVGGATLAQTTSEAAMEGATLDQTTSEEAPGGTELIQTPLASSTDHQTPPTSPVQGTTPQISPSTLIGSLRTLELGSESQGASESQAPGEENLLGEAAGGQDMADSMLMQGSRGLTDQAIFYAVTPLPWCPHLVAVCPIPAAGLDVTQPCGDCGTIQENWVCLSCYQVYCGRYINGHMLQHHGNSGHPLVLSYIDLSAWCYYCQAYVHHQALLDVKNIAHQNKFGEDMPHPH
Briefly: HDAC inhibition assay (color de lys ELISA kit), HDAC6. The format is biochemical. The settings on record: HeLa nuclear extract as source of HDAC activity. Here is the method: as §3
In general terms: ELISA stands for enzyme-linked immunosorbent assay.

Where [5] appears, read: Homo sapiens, A549, A-549, 48 h, read-out: GI50.
Where [6] appears, read: Homo sapiens, MCF7, MCF-7, 48 h, read-out: GI50.

With `O=C(CCCCCn1ncc(-c2ccc(Cl)cc2)n1)NO` [VI(h), 6-(4-(4-Chlorophenyl)-2H-1,2,3-triazol-2-yl)-N-hydroxyhexanamide], the concentration for 50% growth inhibition (GI50) was over 80 µg/mL in test [1] (setting [5]) and 50 µg/mL (≈ 162 µM) in test [2] (setting [6]).

For the molecule `COc1ccc(-c2cnn(-c3ccc(CCC(=O)NO)cc3)n2)cc1` [VI(o), N-Hydroxy-3-(4-(4-(4-methoxyphenyl)-2H-1,2,3-triazol-2-Yl)phenyl)propanamide], the concentration for 50% growth inhibition (GI50) in test [1] (setting [5]) is 62 µg/mL (≈ 183 µM); in test [2] (setting [6]), over 80 µg/mL.

Regarding `Cc1ccc(-c2cnn(-c3ccc(CCC(=O)NO)cc3)n2)cc1` [VI(m), N-Hydroxy-3-(4-(4-(p-tolyl)-2H-1,2,3-triazol-2-yl)phenyl)propanamide], the concentration for 50% growth inhibition (GI50) in test [1] (setting [5]) and in test [2] (setting [6]) was over 80 µg/mL in each case.

For `O=C(CCC(=O)c1ccc(-n2ncc(-c3ccc([N+](=O)[O-])cc3)n2)cc1)NO` [VI(b), N-Hydroxy-4-(4-(4-(4-nitrophenyl)-2H-1,2,3-triazol-2-yl)phenyl)-4-oxobutanamide], the GI50 in test [1] (setting [5]) and in test [2] (setting [6]) was under 10 µg/mL in each case. The results for the negative-log IC50 (pIC50) in test [3] and in test [4] were 4.68 and 4.62, respectively.

On to `O=C(CCCCCn1ncc(-c2ccc(O)cc2)n1)NO` [VI(j), N-Hydroxy-6-(4-(4-hydroxyphenyl)-2H-1,2,3-triazol-2-yl)hexanamide], for which the concentration for 50% growth inhibition (GI50) in test [1] (setting [5]) was 50 µg/mL (≈ 172 µM); in test [2] (setting [6]) it was 17 µg/mL (≈ 58.6 µM).

On to `O=C(CCC(=O)c1ccc(-n2ncc(-c3ccc(O)cc3)n2)cc1)NO` [VI(e), N-Hydroxy-4-(4-(4-(4-hydroxyphenyl)-2H-1,2,3-triazol-2-yl)phenyl)-4-oxobutanamide], for which the concentration for 50% growth inhibition (GI50) in test [1] (setting [5]) and in test [2] (setting [6]) was under 10 µg/mL each time. Further, the negative logarithm of the IC50 (pIC50) in test [3] was 4.56; in test [4], 4.73.

As to `O=C(CCc1ccc(-n2ncc(-c3ccc(O)cc3)n2)cc1)NO` [VI(n), N-Hydroxy-3-(4-(4-(4-hydroxyphenyl)-2H-1,2,3-triazol-2-yl)phenyl)propanamide], the 50% growth inhibitory concentration (GI50) in test [1] (setting [5]) and in test [2] (setting [6]) was over 80 µg/mL throughout.

Consider `Cc1ccc(-c2cnn(CCCCCC(=O)NO)n2)cc1` [VI(k), N-Hydroxy-6-(4-(p-tolyl)-2H-1,2,3-triazol-2-Yl)hexanamide], for which the concentration for 50% growth inhibition (GI50) in test [1] (setting [5]) was over 80 µg/mL; in test [2] (setting [6]), 14.9 µg/mL (≈ 51.5 µM).

For the molecule `Cc1ccc(-c2cnn(-c3ccc(C(=O)CCC(=O)NO)cc3)n2)cc1` [VI(d), N-Hydroxy-4-oxo-4-(4-(4-(p-tolyl)-2H-1,2,3-triazol-2-yl)phenyl)butanamide], the figures for the concentration for 50% growth inhibition (GI50) in test [1] (setting [5]) and in test [2] (setting [6]) were 14.7 µg/mL (≈ 41.9 µM) and 12.9 µg/mL (≈ 36.8 µM), respectively.

With `COc1ccc(-c2cnn(-c3ccc(C(=O)CCC(=O)NO)cc3)n2)cc1OC` [VI(g), 4-(4-(4-(3,4-Dimethoxyphenyl)-2H-1,2,3-triazol-2-yl)phenyl)-N-hydroxy-4-oxobutanamide], the GI50 in test [1] (setting [5]) was determined as 53 µg/mL (≈ 134 µM); in test [2] (setting [6]), 15 µg/mL (≈ 37.8 µM).

Turning to `O=C(CCC(=O)c1ccc(-n2ncc(-c3ccc(Cl)cc3)n2)cc1)NO` [VI(c), 4-(4-(4-(4-Chlorophenyl)-2H-1,2,3-triazol-2-yl)phenyl)-N-hydroxy-4-oxobutanamide], the concentration for 50% growth inhibition (GI50) in test [1] (setting [5]) and in test [2] (setting [6]) was under 10 µg/mL each time. Also, the negative-log IC50 (pIC50) is 4.67 in test [3] and 4.50 in test [4].

Take `COc1ccc(-c2cnn(-c3ccc(C(=O)CCC(=O)NO)cc3)n2)cc1` [VI(a), N-Hydroxy-4-(4-(4-(4-methoxyphenyl)-2H-1,2,3-triazol-2-yl)phenyl)-4-oxobutanamide]: the figures for the GI50 in test [1] (setting [5]) and in test [2] (setting [6]) were 19.4 µg/mL (≈ 52.8 µM) and 15.1 µg/mL (≈ 41.3 µM), respectively.

For `O=C(CCC(=O)c1ccc(-n2ncc(-c3ccc(F)cc3)n2)cc1)NO` [VI(f), 4-(4-(4-(4-Fluorophenyl)-2H-1,2,3-triazol-2-yl)phenyl)-N-hydroxy-4-oxobutanamide], the GI50 in test [1] (setting [5]) was 26.9 µg/mL (≈ 76 µM); in test [2] (setting [6]) it was under 10 µg/mL.

Consider `O=C(CCc1ccc(-n2ncc(-c3ccc(Cl)cc3)n2)cc1)NO` [VI(l), 3-(4-(4-(4-Chlorophenyl)-2H-1,2,3-triazol-2-Yl)phenyl)-N-hydroxypropanamide], for which the GI50 in test [1] (setting [5]) and in test [2] (setting [6]) was over 80 µg/mL throughout.

Take `COc1cccc2c1C(=O)c1c(O)c3c(c(O)c1C2=O)C[C@@](O)(C(=O)CO)C[C@@H]3O[C@H]1C[C@H](N)[C@H](O)[C@H](C)O1` [ADR, reference compound]: the GI50 in test [1] (A-549, 48 h) is under 10 µg/mL; in test [2] (MCF-7, 48 h) it was under 10 µg/mL.
